Laboratory results reported in US4266034A, “Method for producing microbial cells and use thereof to produce oxidation products” (priority 1979, dated 1981).
Read-outs that look alike come from different tables or passages of the source.

How the values were obtained:
[1] = tested on: secondary alcohol dehydrogenase; test: Purified yeast-derived secondary alcohol dehydrogenase activity; format: biochemical, Pichia sp. NRRL Y-11,328
Method: Large scale cultures of Pichia sp. NRRL Y-11,328 were grown with aeration at 30° C. in a 14-liter New Brunswick f fermentor in a mineral salt medium containing methanol (0.4%, v/v) as the sole carbon source. The cells (200 g., wet weight) were suspended in […] sodium phosphate buffer, pH 7.0, containing 1 mM dithiothreitol (buffer A), and crude extracts were prepared as described previously. To the crude extracts, 18 ml. of protamine sulfate solution [2% solution in 0.1 M tris (hydroxymethyl) aminomethane (tris) base] was added dropwise with continuous stirring. After standing for 30 min., the extracts were centrifuged at 20,000×g. for 60 min. The supernatant solution was fractionated with solid ammonium sulfate. Extracts were brought to 50% of saturation with respect to ammonium sulfate by addition of 313 g. of the salt per liter of extract. Precipitated proteins was removed by centrifugation, and 137 g. of ammonium sulfate was added per liter of the supernatant liquid to bring it to 70% of saturation. Material precipitating between 50 and 70% of saturation was collected by centrifugation and dissolved in buffer A. This preparation was dialyzed overnight against buffer A, and the dialyzed material was applied to a DEAE-cellulose column (5×40 cm) that had been equilibrated with buffer A. The sample was washed with 200 ml. of buffer A and eluted with 2 liters of buffer A that contained NaCl in a linear gradient running from a concentration of 0 to 0.5 M. Fractions of 15 ml. were collected. Fractions containing secondary alcohol dehydrogenase activity were pooled and were termed DEAE-cellulose eluate. The DEAE-cellulose eluate was concentrated by ammonium sulfate fractionation.
Secondary alcohol dehydrogenase activity was measured spectrophotometrically at 340 nm with a NAD^+ as an electron acceptor. The reaction mixture, in a total 3.0 ml., contained 50 mM phosphate buffer, pH 8.0, 5 μmoles NAD^+, crude extracts, and substrate. […] Protein concentration was determined by the method of Lowry et al.
The substrate specificity of the purified secondary alcohol dehydrogenase was examined spectrophotometrically.

[2] = tested on: P(40) particulate fraction of Methylosinus sp. (CRL-15, NRRL B-11,202); test: Epoxidation of propylene and hydroxylation of methane by P(40) particulate fraction; format: biochemical; settings: for Rate of Production Formation: substrate oxidized by P(40) fraction, 30° C.; for Methane-Oxidizing Activity / Propylene-Oxidizing Activity: metal 10^-3 M; for Methane-Oxidizing Activity: control 4.0; for Propylene-Oxidizing Activity: control […]; for Propylene Oxide Produced: substrate competition, P(40) fraction
[3] = tested on: secondary alcohol dehydrogenase; test: Cofactor requirement of cell-free soluble extracts oxidizing 2-butanol; format: biochemical; settings: cell-free systems
Method: Catalytic activity was also assayed by fluorescence spectrophotometry.

[4] = tested on: secondary alcohol dehydrogenase (SADH); test: Purified secondary alcohol dehydrogenase (SADH) activity; format: biochemical, Pseudomonas sp. ATCC 21439; settings: each inhibitor 1 mM, measured spectrofluorometrically
Method: Secondary alcohol dehydrogenase (SADH) from an obligate methanol utilizer, Pseudomonas sp. ATCC 21439 was purified as follows. […] 0.05 M sodium phosphate buffer, pH 7.0 with 0.5 mM dithiothretol (buffer A) and were disrupted sonically (5×1 min.). The crude extract was separated by centrifugation. The crude extract was heat-treated at 50° C. in a water bath for 10 minutes. The resulting precipitate was removed by centrifugation. To the supernatant solution, 25 ml of protamine sulfate solution (2% solution in 0.1 M Tris base) was added dropwise with continuous stirring. After standing for 30 minutes, the extract was centrifuged. The supernatant solution was fractionated with solid ammonium sulfate. The material precipitating between 30 and 60% saturation was collected and was dialized overnight against buffer A. The The dialized material was applied to a DEAE-cellulose column (3 cm by 35 cm) that had been equilibrated with buffer A. The secondary alcohol dehydrogenase activity was eluted in the void volume. This DEAE-cellulose eluate was concentrated by ammonium sulfate fractionation. Material precipitating between 30 and 50% ammonium sulfate saturation was collected by centrifugation and dialyzed overnight against A. This fraction was further washed and filtered through an Amicon unit with XM 50 membrane. The concentrated fraction (6 ml) inside the Amicon unit was applied to an Affi-Gel Blue column (0.8 cm×18 cm) which had been equilibrated with buffer A for affinity chromatography. The column was washed overnight with buffer A (0.18 ml./min.) and then was eluted with buffer A containing 5 mM NAD. Each 1 ml. fraction was collected.
The purified secondary alcohol dehydrogenase enzyme (SADH) may be used directly for converting C3 -C6 secondary alcohols to the corresponding methyl ketones by the procedures described above; however, a source of NAD^+ must be added to the reaction medium. One can determine the NAD-linked secondary alcohol dehydrogenase activity with a fluorescence spectrophotometer (Perkin Elmer, Model MPF 44A) by following the formation of reduced NAD (Ex 340 nm, Em 460 nm). The assay system (3 ml.) will typically contain: sodium phosphate buffer pH 7.0, 150 μmol; NAD 1.0 μmol; a given amount of enzyme preparation; and 20 μmol secondary alcohol. The reaction is started by the addition of secondary alcohol. One unit of SADH enzyme activity represents the reduction of one nmole NAD per minute.
The effect of metal-chelating agents and thioreagents on the activity of the purified SADH enzyme were studied. […] The possibility of ethanol or n-propanol as an inhibitor was studied.

[5] = tested on: cell-free particulate fractions derived from the methylotrophic microorganisms; test: Inhibition of conversion of C3-C6 n-alkanes to sec. alcohols by cell-free particulate fractions; format: biochemical; settings: oxygen and NADH
Source text: The conditions for preparing the cell suspensions or the cell-free particulate fractions from methane-grown methylotroph microorganisms is the same as described above. […] Tables XXV and XXVI show the conversion of C3 -C6 n-alkanes to the corresponding secondary alcohols using cell suspensions and cell-free particulate fractions, respectively, of methane-grown methylotroph microorganisms.

[6] = tested on: methanol-grown Methylococcus capsulatus CRL M1 (NRRL B-11,219); test: Production of 2-butanone from 2-butanol by cell suspensions, inhibition studies; format: cell-based; settings: 1 mM
[7] = examined spectrophotometrically
[8] = purified enzyme, substrate 5.7 (isopropanol) or 6.0 (2-butanol) μmoles

CC(O)CO (stereo not drawn) [1,2-propandiol]
oxidation by the purified enzyme (substrate specificity) [1, 7]: not oxidized

C=CCC [1-Butene]
Rate of Production Formation [2]: 2.18 μ moles/hr/mg of protein

C=CCCC [1-Pentene]
Rate of Production Formation [2]: 0 μ moles/hr/mg of protein

O=C1C(Cl)=CC(=Nc2ccc(O)cc2)C=C1Cl [2,6-dichlorophenol indophenol]
effectiveness as cofactor in place of NAD [3]: not effective
ability to act as electron carrier in place of NAD^+ ([1]; purified enzyme): could not act as electron carrier

CCCCCC(C)O (stereo not drawn) [2-Heptanol]
oxidation by the purified enzyme (substrate specificity) [1, 7]: not oxidized

CCC(C)O (stereo not drawn) [2-butanol]
oxidation by the purified enzyme (substrate specificity) [1]: catalyzed the oxidation

CCCCC(C)O (stereo not drawn) [2-hexanol]
oxidation by the purified enzyme (substrate specificity) [1, 7]: catalyzed the oxidation

CCCCCCC(C)O (stereo not drawn) [2-octanol]
oxidation by the purified enzyme (substrate specificity) [1, 7]: not oxidized

CCCC(C)O (stereo not drawn) [2-pentanol]
oxidation by the purified enzyme (substrate specificity) [1, 7]: catalyzed the oxidation

CC(C)O [2-propanol]
oxidation by the purified enzyme (substrate specificity) [1, 7]: catalyzed the oxidation
NAD^+ Reduced [1, 8]: 5.4 µmol
Product Formed [1, 8]: 5.5 µmol

O=C(O)c1cc(SSc2ccc([N+](=O)[O-])c(C(=O)O)c2)ccc1[N+](=O)[O-] [5,5'-dithiobis(2-nitrobenzoic acid)]
% inhibition of SADH activity [4]: 100%
% inhibition of SADH activity ([4]; listed as 5,5'-dithiobis (2-nitrobenzoic acid)): inhibited

Oc1cccc2cccnc12 [8-Hydroxyquinoline]
inhibition of the conversion of n-alkanes to sec. alcohols [5]: inhibited

C=CC=C [Butadiene]
Rate of Production Formation [2]: 0.63 μ moles/hr/mg of protein

[Co+2] [Co^++]
% inhibition of SADH activity [4]: 0%

O=S(=O)([O-])[O-].[Cu+2] [Cupric Sulfate]
Methane-Oxidizing Activity [2]: 7.1 μmoles/hr/mg protein
Propylene-Oxidizing Activity [2]: 9.0 μmoles/hr/mg protein
inhibition of secondary alcohol dehydrogenase activity ([1]; purified enzyme): inhibited

[Cl][Cu] [Cuprous Chloride]
Methane-Oxidizing Activity [2]: 7.2 μmoles/hr/mg protein
Propylene-Oxidizing Activity [2]: 9.2 μmoles/hr/mg protein

CC [Ethane]
Rate of Production Formation [2]: 3.2 μ moles/hr/mg of protein

C=C [Ethylene]
Rate of Production Formation [2]: 1.27 μ moles/hr/mg of protein

[Cl][Fe]([Cl])[Cl] [Ferric Chloride]
Methane-Oxidizing Activity [2]: 4.8 μmoles/hr/mg protein
Propylene-Oxidizing Activity [2]: 5.8 μmoles/hr/mg protein

c1c[nH]cn1 [Imidazole]
inhibition of secondary alcohol dehydrogenase activity ([1]; purified enzyme): strongly inhibited

C [Methane]
Propylene Oxide Produced [2]: 0 μmoles/hr/mg. protein
Rate of Production Formation [2]: 4.8 μ moles/hr/mg of protein

[Mg+2] [Mg^++]
% inhibition of SADH activity [4]: 0%

[Mn+2] [Mn^++]
% inhibition of SADH activity [4]: 0%

CCN1C(=O)C=CC1=O [N-ethylmalemide]
% inhibition of SADH activity [4]: 6%
% inhibition of SADH activity ([4]; listed as N-ethylmaleimide): not inhibited

NC(=O)C1=CN([C@@H]2O[C@H](COP(=O)(O)OP(=O)(O)OC[C@H]3O[C@@H](n4cnc5c(N)ncnc54)[C@H](OP(=O)(O)O)[C@@H]3O)[C@@H](O)[C@H]2O)C=CC1 [NAD(P)H]
effectiveness as cofactor in place of NAD [3]: not effective

NC(=O)c1ccc[n+]([C@@H]2O[C@H](COP(=O)([O-])OP(=O)(O)OC[C@H]3O[C@@H](n4cnc5c(N)ncnc54)[C@H](OP(=O)(O)O)[C@@H]3O)[C@@H](O)[C@H]2O)c1 [NADP]
effectiveness as cofactor in place of NAD [3]: not effective
ability to act as electron carrier in place of NAD^+ ([1]; purified enzyme): could not act as electron carrier

C=CC [Propylene]
Propylene Oxide Produced [2]: 4.3 μmoles/hr/mg. protein
Rate of Production Formation [2]: 4.1 μ moles/hr/mg of protein
inhibition of the conversion of n-alkanes to sec. alcohols [5]: inhibited

[N-]=[N+]=[N-] [Sodium azide]
% inhibition of SADH activity [4]: 10%

NNC(N)=S [Thiosemicarbazide]
inhibition of the conversion of n-alkanes to sec. alcohols [5]: inhibited

NC(N)=S [Thiourea]
Inhibition (%) of production of 2-butanone [6]: not inhibited
inhibition of the conversion of n-alkanes to sec. alcohols [5]: inhibited

[Zn+2] [Zn^++]
% inhibition of SADH activity [4]: 0%

CCCCO [butan-1-ol]
oxidation by the purified enzyme (substrate specificity) [1]: not oxidized

CCC(O)CO (stereo not drawn) [butane 1,2-diol]
oxidation by the purified enzyme (substrate specificity) [1, 7]: not oxidized

CC(O)CCO (stereo not drawn) [butane 1,3-diol]
oxidation by the purified enzyme (substrate specificity) [1, 7]: not oxidized

[Cu+2] [cupric]
% inhibition of SADH activity [4]: 25%

CCO [ethanol]
oxidation by the purified enzyme (substrate specificity) [1]: not oxidized

[Fe+3] [ferric]
% inhibition of SADH activity [4]: 35%

[Fe+2] [ferrous]
% inhibition of SADH activity [4]: 50%

Cc1cc2nc3c(=O)[nH]c(=O)nc-3n(C[C@H](O)[C@H](O)[C@H](O)COP(=O)(O)OP(=O)(O)OC[C@H]3O[C@@H](n4cnc5c(N)ncnc54)[C@H](O)[C@@H]3O)c2cc1C [flavin adenine dinucleotide]
effectiveness as cofactor in place of NAD [3]: not effective
ability to act as electron carrier in place of NAD^+ ([1]; purified enzyme): could not act as electron carrier

N[C@@H](CCC(=O)N[C@@H](CS)C(=O)NCC(=O)O)C(=O)O [glutathione]
effectiveness as cofactor in place of NAD [3]: not effective
inhibition of secondary alcohol dehydrogenase activity ([1]; purified enzyme): strongly inhibited

N#C[S][Hg][S]C#N [mercuric thiocyanate]
inhibition of secondary alcohol dehydrogenase activity ([1]; purified enzyme): inhibited

CO [methanol]
oxidation by the purified enzyme (substrate specificity) [1, 7]: not oxidized

[Ni+2] [nickel]
% inhibition of SADH activity [4]: 20%

O=C(O)c1cc[c]([Hg+])cc1.[OH-] [p-hydroxymercuribenzoate]
% inhibition of SADH activity [4]: 100%
inhibition of secondary alcohol dehydrogenase activity ([1]; purified enzyme): strongly inhibited

CCCCCO [pentan-1-ol]
oxidation by the purified enzyme (substrate specificity) [1, 7]: not oxidized

C[n+]1c2ccccc2nc2ccccc21 [phenazine methosulfate]
effectiveness as cofactor in place of NAD [3]: not effective
ability to act as electron carrier in place of NAD^+ ([1]; purified enzyme): could not act as electron carrier

CCCO [propan-1-ol]
oxidation by the purified enzyme (substrate specificity) [1]: not oxidized

O=[N+]([O-])[O-].[Ag+] [silver nitrate]
inhibition of secondary alcohol dehydrogenase activity ([1]; purified enzyme): inhibited

c1ccc(-c2ccccn2)nc1 [α,α-Bipyridyl]
% inhibition of SADH activity [4]: 70%
Inhibition (%) of production of 2-butanone [6]: inhibited
inhibition of the conversion of n-alkanes to sec. alcohols [5]: inhibited

Ferrous Sulfate
Methane-Oxidizing Activity [2]: 4.8 μmoles/hr/mg protein
Propylene-Oxidizing Activity [2]: 5.9 μmoles/hr/mg protein

cytochrome c
ability to act as electron carrier in place of NAD^+ ([1]; purified enzyme): could not act as electron carrier
